# Key:
# Format in all cases: in vivo
# Amaranthus retroflexus = experiment: greenhouse pre-emergence herbicidal test; settings: 16 g/ha, scale from 0 to 100
# Description: (§1) The seeds of the test plants were sown separately for each species. For the pre-emergence treatment, the active ingredients, which had been suspended or emulsified in water, were applied directly after sowing by means of finely distributing nozzles. The containers were irrigated gently to promote germination and growth and subsequently covered with transparent plastic hoods until the plants had rooted. This cover caused uniform germination of the test plants, unless this had been impaired by the active ingredients. Depending on the species, the plants were kept at 10-25° C. or 20-35° C., respectively. The test period extended over 2 to 4 weeks. During this time, the plants were tended, and their response to the individual treatments was evaluated. Evaluation was carried out using a scale from 0 to 100. 100 means no emergence of the plants, or complete destruction of at least the aerial moieties, and 0 means no damage, or normal course of growth. A good herbicidal activity is given at values of at least 70 and a very good herbicidal activity is given at values of at least 85.
# Setaria faberi = experiment: greenhouse pre-emergence herbicidal test; settings: 16 g/ha, scale from 0 to 100
# Description: as §1
# Alopecurus myosuroides = experiment: greenhouse post-emergence herbicidal test; settings: scale from 0 to 100
# Description: (§2) The seeds of the test plants were sown separately for each species. For the post-emergence treatment, the test plants were first grown to a height of 3 to 15 cm, depending on the plant habit, and only then treated with the active ingredients which had been suspended or emulsified in water. For this purpose, the test plants were either sown directly and grown in the same containers, or they were first grown separately as seedlings and transplanted into the test containers a few days prior to treatment. Depending on the species, the plants were kept at 10-25° C. or 20-35° C., respectively. The test period extended over 2 to 4 weeks. During this time, the plants were tended, and their response to the individual treatments was evaluated. Evaluation was carried out using a scale from 0 to 100. 100 means no emergence of the plants, or complete destruction of at least the aerial moieties, and 0 means no damage, or normal course of growth. A good herbicidal activity is given at values of at least 70 and a very good herbicidal activity is given at values of at least 85.
# Lolium multiflorum = experiment: greenhouse post-emergence herbicidal test; settings: 4 g/ha, scale from 0 to 100
# Description: as §2
# Avena fatua = experiment: greenhouse post-emergence herbicidal test; settings: 16 g/ha, scale from 0 to 100
# Description: as §2
SMILES,"damages, Amaranthus retroflexus (Amaranthus retroflexus)","damages, Setaria faberi (Setaria faberi)","damages, Alopecurus myosuroides (Alopecurus myosuroides; 4 g/ha)","damages, Lolium multiflorum (Lolium multiflorum)","damages, Alopecurus myosuroides (Alopecurus myosuroides; 16 g/ha)","damages, Avena fatua (Avena fatua)"
CCOC(=O)COc1ccc(Oc2cc(-n3nc(C)n(C(F)F)c3=O)c(F)cc2Cl)cc1 [compound B],45,0,30,70,,
"CCOC(=O)COc1ccccc1Oc1cc(-n2nc(C)n(C(F)F)c2=O)c(F)cc1Cl [Example 3, Ethyl 2-[2-[2-chloro-5-[4-(difluoromethyl)-3-methyl-5-oxo-1,2,4-triazol-1-yl]-4-fluoro-phenoxy]phenoxy]acetate]",85,85,70,90,95,70
CCOC(=O)COc1cccc(Oc2cc(-n3nc(C)n(C(F)F)c3=O)c(F)cc2Cl)c1 [compound A],45,0,,,55,20

# From US11185075B2, “Herbicidal phenyltriazolinones” (BASF SE, priority 2016, dated 2021)
